# In ChEMBL document CHEMBL5113538, “Discovery of Novel Allosteric EGFR L858R Inhibitors for the Treatment of Non-Small-Cell Lung Cancer as a Single Agent or in Combination with Osimertinib” (J Med Chem, 2022):
# What was measured:
# [1] = Toxicity in Balb/c nude mouse allografted with mouse BaF3 cells harboring EGFR L858R/C797S mutant assessed as change in body weight at 10 mg/kg, po administered twice daily for 20 days; assay type: organism-based; details: in vivo, 480 h, time 20 day
# [2] = Oral bioavailability in CD1 mouse at 10 mg/kg administered as single dose measured after 24 hrs by LC-MS/MS analysis; assay type: ADME, organism-based; details: in vivo
# [3] = molecular target: Epidermal growth factor receptor (Homo sapiens, UniProt P00533, C797S/L858R/T790M)
# [4] = molecular target: T1, D(2) dopamine receptor (Homo sapiens, UniProt P14416); test: Inhibition of dopamine D2 receptor (unknown origin)
# [5] = system: SU-DHL-6; test: Antiproliferative activity against human SU-DHL-6 cells assessed as cell growth inhibition; assay type: functional
# [6] = Volume of distribution at steady state in CD1 mouse at 1 mg/kg, iv administered as single dose measured after 24 hrs by LC-MS/MS analysis; assay type: ADME, organism-based; details: in vivo, read-out: Vdss
# [7] = Tlast in CD1 mouse at 10 mg/kg, po administered as single dose measured after 24 hrs by LC-MS/MS analysis; assay type: ADME, organism-based; details: in vivo
# [8] = system: BaF3; test: Antitumor activity against mouse BaF3 cells harboring EGFR L858R/C797S mutant allografted in Balb/c nude mouse assessed as in tumor growth inhibition at 10 mg/kg, po administered twice daily measured on day 20; assay type: functional; details: BaF3, 480 h, time 20 day, read-out: TGI
# [9] = system: NCI-H292; test: Antiproliferative activity against human NCI-H292 cells assessed as cell growth inhibition; assay type: functional
# [10] = system: NCI-H1975; test: Antitumor activity against human NCI-H1975 cells harboring EGFR L858R/T790M mutant xenografted in Balb/c nude mouse assessed as in tumor growth inhibition at 10 mg/kg, po administered once daily measured after 14 days in presence of osimertinib; assay type: functional; details: NCI-H1975, 336 h, time 14 day, read-out: TGI
# [11] = molecular target: T2, Glucocorticoid receptor (Homo sapiens, UniProt P04150); test: Inhibition of glucocorticoid receptor (unknown origin)
# T2 sequence (P04150 whole entry): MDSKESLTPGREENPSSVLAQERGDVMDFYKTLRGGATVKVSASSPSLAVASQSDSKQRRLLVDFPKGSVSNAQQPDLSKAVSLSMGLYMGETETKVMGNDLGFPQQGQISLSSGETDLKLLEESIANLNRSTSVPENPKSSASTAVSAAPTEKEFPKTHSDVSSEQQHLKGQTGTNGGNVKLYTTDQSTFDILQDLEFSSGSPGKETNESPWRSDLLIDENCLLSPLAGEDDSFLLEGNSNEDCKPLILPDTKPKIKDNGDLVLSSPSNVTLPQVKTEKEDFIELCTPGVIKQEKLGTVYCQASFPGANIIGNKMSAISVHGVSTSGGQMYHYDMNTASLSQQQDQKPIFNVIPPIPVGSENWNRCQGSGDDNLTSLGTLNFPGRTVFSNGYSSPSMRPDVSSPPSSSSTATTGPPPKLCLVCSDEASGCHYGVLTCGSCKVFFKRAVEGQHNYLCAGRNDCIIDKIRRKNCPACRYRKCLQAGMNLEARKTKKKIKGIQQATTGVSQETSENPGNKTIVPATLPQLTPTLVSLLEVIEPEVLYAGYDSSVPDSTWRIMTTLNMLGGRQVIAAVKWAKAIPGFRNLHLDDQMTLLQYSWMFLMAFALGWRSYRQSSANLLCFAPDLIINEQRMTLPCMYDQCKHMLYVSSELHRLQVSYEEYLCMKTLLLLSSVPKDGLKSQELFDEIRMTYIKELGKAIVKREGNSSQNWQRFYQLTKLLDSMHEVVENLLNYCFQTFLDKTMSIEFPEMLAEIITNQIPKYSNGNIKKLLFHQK
# [12] = Toxicity in Balb/c nude mouse allografted with mouse BaF3 cells harboring EGFR L858R/C797S mutant assessed as tolerability at 10 mg/kg, po administered twice daily for 20 days; assay type: organism-based; details: in vivo, 480 h, time 20 day
# [13] = AUC(0 to t) in CD1 mouse at 10 mg/kg, po administered as single dose measured after 24 hrs by LC-MS/MS analysis; assay type: ADME, organism-based; parameters: time 24 hrs, dose 10 mg/kg, route po; details: in vivo
# [14] = Toxicity in Balb/c nude mouse xenografted with human NCI-H1975 cells harboring EGFR L858R/T790M mutant assessed as change in body weight at 10 mg/kg, po administered twice daily measured after 14 days; assay type: organism-based; details: in vivo, 336 h, time 14 day
# [15] = molecular target: Epidermal growth factor receptor (Homo sapiens, UniProt P00533, C797S/L858R)
# [16] = Terminal half life in CD1 mouse at 1 mg/kg, iv administered as single dose measured after 24 hrs by LC-MS/MS analysis; assay type: ADME, organism-based; details: in vivo, read-out: beta t1/2 (converted)
# [17] = molecular target: Angiotensin-converting enzyme (Homo sapiens, UniProt P12821); test: Inhibition of angiotensin converting enzyme (unknown origin) at 10 uM relative to control
# [18] = system: L-363; test: Antiproliferative activity against human L-363 cells assessed as cell growth inhibition; assay type: functional
# [19] = system: BaF3; test: Cytotoxicity against mouse BaF3 cells expressing EGFR L858R/T790M/C797S mutant assessed as reduction in cell viability measured after 72 hrs by cell titre glo luminescence assay; assay type: functional, cell-based; details: BaF3, 72 h
# [20] = Cmax in CD1 mouse at 10 mg/kg, po administered as single dose measured after 24 hrs by LC-MS/MS analysis; assay type: ADME, organism-based; parameters: dose 10 mg/kg, time 24 hrs, route po; details: in vivo
# [21] = Tlast in CD1 mouse at 1 mg/kg, iv administered as single dose measured after 24 hrs by LC-MS/MS analysis; assay type: ADME, organism-based; details: in vivo
# [22] = molecular target: T1, D(2) dopamine receptor; test: Inhibition of dopamine D2 receptor (unknown origin) at 10 uM relative to control
# [23] = Clearance in CD1 mouse at 1 mg/kg, iv administered as single dose measured after 24 hrs by LC-MS/MS analysis; assay type: ADME, organism-based; details: in vivo
# [24] = AUC (0 to infinity) in CD1 mouse at 1 mg/kg, iv administered as single dose measured after 24 hrs by LC-MS/MS analysis; assay type: ADME, organism-based; parameters: time 24 hrs, dose 1 mg/kg, route iv; details: in vivo
# [25] = AUC(0 to t) in CD1 mouse at 1 mg/kg, iv administered as single dose measured after 24 hrs by LC-MS/MS analysis; assay type: ADME, organism-based; parameters: time 24 hrs, dose 1 mg/kg, route iv; details: in vivo
# [26] = Tmax in CD1 mouse at 10 mg/kg, po administered as single dose measured after 24 hrs by LC-MS/MS analysis; assay type: ADME, organism-based; details: in vivo
# T1 sequence (P14416 whole entry): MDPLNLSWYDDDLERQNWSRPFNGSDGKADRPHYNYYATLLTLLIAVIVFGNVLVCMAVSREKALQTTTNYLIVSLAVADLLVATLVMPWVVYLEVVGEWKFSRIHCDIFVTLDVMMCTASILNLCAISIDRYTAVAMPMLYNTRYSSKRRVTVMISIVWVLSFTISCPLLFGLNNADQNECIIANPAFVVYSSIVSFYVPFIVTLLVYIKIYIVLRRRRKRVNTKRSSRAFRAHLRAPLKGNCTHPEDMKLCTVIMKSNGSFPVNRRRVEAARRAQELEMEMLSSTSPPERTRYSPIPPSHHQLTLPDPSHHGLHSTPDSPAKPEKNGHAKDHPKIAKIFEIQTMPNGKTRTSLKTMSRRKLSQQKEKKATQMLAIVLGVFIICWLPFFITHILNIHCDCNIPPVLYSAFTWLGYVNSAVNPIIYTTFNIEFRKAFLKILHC
# Chain of Angiotensin-converting enzyme (P12821 whole entry): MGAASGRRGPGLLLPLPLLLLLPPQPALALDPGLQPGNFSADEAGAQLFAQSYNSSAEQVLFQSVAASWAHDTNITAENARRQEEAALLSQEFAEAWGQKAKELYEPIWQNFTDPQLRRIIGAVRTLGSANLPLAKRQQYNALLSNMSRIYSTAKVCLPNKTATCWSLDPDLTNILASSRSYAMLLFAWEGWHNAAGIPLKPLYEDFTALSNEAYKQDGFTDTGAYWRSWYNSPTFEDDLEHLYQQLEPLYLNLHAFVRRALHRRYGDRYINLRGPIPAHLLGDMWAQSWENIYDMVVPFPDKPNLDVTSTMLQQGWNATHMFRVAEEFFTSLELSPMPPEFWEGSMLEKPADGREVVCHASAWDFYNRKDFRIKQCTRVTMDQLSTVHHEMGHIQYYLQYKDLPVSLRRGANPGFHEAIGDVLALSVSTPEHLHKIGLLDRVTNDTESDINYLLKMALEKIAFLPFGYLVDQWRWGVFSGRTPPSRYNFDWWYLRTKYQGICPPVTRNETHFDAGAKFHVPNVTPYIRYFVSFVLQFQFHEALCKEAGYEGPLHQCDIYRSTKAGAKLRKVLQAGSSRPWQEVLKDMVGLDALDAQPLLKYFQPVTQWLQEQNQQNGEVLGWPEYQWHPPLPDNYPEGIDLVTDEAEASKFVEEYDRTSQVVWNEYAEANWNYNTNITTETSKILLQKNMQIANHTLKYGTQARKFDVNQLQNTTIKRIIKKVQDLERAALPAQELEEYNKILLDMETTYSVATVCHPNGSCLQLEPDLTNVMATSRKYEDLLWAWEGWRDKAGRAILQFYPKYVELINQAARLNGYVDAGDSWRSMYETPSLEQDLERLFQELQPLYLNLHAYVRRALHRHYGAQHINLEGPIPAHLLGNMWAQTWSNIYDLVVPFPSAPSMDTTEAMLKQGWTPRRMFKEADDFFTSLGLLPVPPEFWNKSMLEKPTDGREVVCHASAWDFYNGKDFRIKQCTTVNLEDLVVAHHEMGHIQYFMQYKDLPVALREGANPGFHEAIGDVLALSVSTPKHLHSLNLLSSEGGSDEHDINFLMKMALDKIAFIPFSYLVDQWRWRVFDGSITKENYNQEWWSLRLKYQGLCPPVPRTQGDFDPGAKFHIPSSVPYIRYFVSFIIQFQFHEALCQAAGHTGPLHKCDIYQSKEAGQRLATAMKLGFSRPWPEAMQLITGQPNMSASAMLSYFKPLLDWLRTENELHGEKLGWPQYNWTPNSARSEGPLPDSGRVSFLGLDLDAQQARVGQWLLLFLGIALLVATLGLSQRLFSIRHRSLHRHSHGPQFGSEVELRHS
# Chain of Epidermal growth factor receptor (Homo sapiens, UniProt P00533, C797S/L858R/T790M) (P00533 25-1210 T790M/C797S/L858R limits assumed): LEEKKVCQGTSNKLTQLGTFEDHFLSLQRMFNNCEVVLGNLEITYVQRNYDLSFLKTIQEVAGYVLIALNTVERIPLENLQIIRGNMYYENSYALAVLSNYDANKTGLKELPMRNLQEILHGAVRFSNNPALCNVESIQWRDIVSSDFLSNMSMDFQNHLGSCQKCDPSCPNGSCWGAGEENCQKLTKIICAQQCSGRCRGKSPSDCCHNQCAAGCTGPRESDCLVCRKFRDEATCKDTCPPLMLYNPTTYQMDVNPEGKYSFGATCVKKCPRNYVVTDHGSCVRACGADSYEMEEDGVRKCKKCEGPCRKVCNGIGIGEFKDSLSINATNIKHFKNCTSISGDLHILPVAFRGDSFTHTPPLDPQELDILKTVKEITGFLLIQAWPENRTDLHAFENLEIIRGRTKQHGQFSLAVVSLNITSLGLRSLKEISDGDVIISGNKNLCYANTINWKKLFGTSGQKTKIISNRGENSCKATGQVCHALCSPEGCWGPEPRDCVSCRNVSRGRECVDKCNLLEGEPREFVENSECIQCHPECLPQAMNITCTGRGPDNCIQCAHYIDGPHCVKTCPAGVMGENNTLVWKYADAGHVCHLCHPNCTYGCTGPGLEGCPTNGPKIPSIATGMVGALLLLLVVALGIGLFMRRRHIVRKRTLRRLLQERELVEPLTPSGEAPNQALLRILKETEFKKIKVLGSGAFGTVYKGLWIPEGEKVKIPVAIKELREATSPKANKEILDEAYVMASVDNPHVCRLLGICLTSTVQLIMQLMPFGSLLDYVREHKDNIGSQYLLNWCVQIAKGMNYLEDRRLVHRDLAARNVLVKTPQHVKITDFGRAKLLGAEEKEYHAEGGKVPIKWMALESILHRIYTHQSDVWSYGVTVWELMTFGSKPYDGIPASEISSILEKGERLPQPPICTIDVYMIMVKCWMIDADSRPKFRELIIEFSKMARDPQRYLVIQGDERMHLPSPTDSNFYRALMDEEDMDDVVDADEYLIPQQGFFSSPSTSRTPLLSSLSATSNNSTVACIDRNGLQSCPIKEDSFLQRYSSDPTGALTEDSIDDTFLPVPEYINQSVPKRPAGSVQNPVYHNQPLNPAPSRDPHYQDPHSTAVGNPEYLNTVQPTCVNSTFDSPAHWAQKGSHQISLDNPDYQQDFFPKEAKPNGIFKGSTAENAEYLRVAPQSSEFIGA
# Chain of Epidermal growth factor receptor (Homo sapiens, UniProt P00533, C797S/L858R) (P00533 25-1210 C797S/L858R limits assumed): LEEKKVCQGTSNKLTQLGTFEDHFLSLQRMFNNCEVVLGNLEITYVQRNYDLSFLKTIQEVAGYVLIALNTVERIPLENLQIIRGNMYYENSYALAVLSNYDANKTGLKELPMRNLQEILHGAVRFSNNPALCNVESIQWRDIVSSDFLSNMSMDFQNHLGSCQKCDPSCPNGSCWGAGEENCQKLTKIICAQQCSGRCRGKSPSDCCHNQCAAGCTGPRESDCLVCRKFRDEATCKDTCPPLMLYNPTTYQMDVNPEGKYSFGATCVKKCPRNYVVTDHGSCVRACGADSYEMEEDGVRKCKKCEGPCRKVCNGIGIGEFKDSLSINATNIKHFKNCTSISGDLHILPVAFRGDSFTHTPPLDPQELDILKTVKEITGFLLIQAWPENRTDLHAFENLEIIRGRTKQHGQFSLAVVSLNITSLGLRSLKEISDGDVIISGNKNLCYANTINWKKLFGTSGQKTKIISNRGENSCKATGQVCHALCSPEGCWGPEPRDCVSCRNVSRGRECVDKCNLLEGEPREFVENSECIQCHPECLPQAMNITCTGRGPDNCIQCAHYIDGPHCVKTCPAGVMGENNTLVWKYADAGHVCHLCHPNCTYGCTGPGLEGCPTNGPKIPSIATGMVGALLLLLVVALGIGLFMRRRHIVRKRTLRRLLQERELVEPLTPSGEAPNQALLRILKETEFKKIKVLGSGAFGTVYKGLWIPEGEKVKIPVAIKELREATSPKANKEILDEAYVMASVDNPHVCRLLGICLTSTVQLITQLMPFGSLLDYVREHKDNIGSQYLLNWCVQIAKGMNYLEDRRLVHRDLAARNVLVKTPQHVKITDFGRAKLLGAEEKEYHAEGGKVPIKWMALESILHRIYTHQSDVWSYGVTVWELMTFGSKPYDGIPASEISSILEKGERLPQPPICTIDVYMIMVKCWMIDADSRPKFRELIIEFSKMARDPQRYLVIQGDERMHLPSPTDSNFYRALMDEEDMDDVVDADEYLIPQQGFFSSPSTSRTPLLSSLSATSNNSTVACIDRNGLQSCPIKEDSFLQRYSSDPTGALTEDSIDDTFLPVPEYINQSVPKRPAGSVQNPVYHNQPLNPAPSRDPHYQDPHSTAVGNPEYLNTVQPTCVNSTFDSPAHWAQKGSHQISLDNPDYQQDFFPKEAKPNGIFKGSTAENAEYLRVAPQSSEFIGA
structure (smiles),measurement,setting,value
Cc1c(C#Cc2ccc(CN3CCC(CO)CC3)cc2)cc(C(F)F)c2cn(C(C(=O)Nc3nccs3)c3ncn4c3CCC43CC3)nc12 (stereo unspecified),Activity,[1],Non-Toxic
same,bioavailability,[2],22%
same,IC50,[3],2 nM
same,IC50,[4],1000 nM
same,GI50,[5],1460 nM
same,Vd,[6],10 L/kg
same,Tlast,[7],24 h
same,inhibition in vivo at 10 mg/kg,[8],70%
same,GI50,[9],350 nM
same,inhibition in vivo at 10 mg/kg,[10],100%
same,IC50,[11],3200 nM
same,Activity,[12],Non-Toxic
same,AUC(0-t) at 24 h,[13],1790 ng·h/mL
same,Activity,[14],Non-Toxic
same,IC50,[15],20 nM
same,half-life,[16],6.6 h
same,inhibition,[17],96%
same,GI50,[18],1320 nM
same,IC50,[19],1 nM
same,Cmax,[20],135 ng/mL
same,Tlast,[21],24 h
same,inhibition,[22],98%
same,clearance,[23],20 mL/min/kg
same,AUC(0-inf),[24],871 ng·h/mL
same,AUC(0-t) at 24 h,[25],803 ng·h/mL
same,Tmax,[26],5 h
